According to ChEMBL document CHEMBL4229409, “Rational design of novel irreversible inhibitors for human arginase” (Bioorg Med Chem, 2018):
Activity calls are given as the source filed them. The calls are words filed in the database; no cut-off is given here.

Legend:
[1] = target: T1, Arginase-2, mitochondrial (Homo sapiens, UniProt P78540); experiment: Irreversible inhibition of human arginase 2 using thioarginine as substrate measured up to 360 mins by UV micro plate method
T1 sequence (P78540 whole entry): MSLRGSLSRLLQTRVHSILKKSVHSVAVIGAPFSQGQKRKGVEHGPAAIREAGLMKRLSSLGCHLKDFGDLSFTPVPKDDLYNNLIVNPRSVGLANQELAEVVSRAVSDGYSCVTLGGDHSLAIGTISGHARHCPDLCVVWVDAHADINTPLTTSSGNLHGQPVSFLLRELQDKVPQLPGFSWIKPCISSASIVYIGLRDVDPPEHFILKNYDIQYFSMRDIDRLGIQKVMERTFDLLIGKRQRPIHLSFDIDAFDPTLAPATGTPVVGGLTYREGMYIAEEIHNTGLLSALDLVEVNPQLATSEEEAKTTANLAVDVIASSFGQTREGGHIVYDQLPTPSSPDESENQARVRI

[2] = target: T2, Arginase-1 (Homo sapiens) (UniProt P05089); experiment: Irreversible inhibition of human arginase 1 assessed as inactivation rate constant using thioarginine as substrate measured up to 360 mins by UV micro plate method
T2 sequence (whole entry): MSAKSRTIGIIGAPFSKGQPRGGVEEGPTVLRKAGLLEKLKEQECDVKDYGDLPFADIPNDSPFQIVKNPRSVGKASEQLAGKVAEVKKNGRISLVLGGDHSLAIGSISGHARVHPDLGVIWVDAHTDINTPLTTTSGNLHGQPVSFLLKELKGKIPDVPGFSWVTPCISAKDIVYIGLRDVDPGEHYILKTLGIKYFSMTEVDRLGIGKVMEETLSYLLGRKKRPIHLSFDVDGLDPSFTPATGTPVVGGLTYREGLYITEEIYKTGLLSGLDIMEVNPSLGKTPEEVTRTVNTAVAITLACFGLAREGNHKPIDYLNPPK

[3] = target: T3, Arginase-2, mitochondrial (Homo sapiens) (UniProt P78540); experiment: Irreversible inhibition of human arginase 2 assessed as inactivation rate constant using thioarginine as substrate measured up to 360 mins by UV micro plate method
T3 sequence (whole entry): T1 sequence (P78540 whole entry)

[4] = target: T2, Arginase-1 (Homo sapiens); experiment: Binding affinity to human arginase 1 at Thr135 residues preincubated with compound at 500 uM followed by chymotrypsin addition measured after 16 hrs by tandem mass spectrometric method
Arginase-1 = target: T4, Arginase-1 (Homo sapiens, UniProt P05089); experiment: Irreversible inhibition of human arginase 1 using thioarginine as substrate measured up to 360 mins by UV micro plate method
T4 sequence (P05089 whole entry): T2 sequence (whole entry)

[5] = Reversible inhibition of human arginase using thioarginine as substrate measured up to 360 mins by UV micro plate method

SMILES | Ki [1] [µM] | Kinact [2] [min⁻¹] | Kinact [3] [min⁻¹] | Activity [4] | Ki (Arginase-1) [µM] | Ki [5] [µM]
N=C(N)Nc1ccc(C(F)C(=O)O)cc1 (stereo not given) | 322 | 0.029 to 0.031 | 0.048 | Active | 275 to 307 | 
N[C@@H](CSCCB(O)O)C(=O)O |  |  |  |  |  | 20
CC(=O)OC(C(=O)O)c1ccc(NC(=N)N)cc1 (stereo not given) | 437 | 0.032 | 0.033 |  | 382 | 
